Assay results from patent publication US7795240B1, “Nonreducing beta-glucan derivative” (Asahi Kasei Chemicals Corporation, priority 2003, dated 2010).

Key:
Assay type in all cases: physicochemical
[1] = storage stability test of an equivalent mixture with L-arginine (degree of whiteness, coloration); details: for appearance (color) after storage / decrease ratio in degree of whiteness: 40° C., 2 weeks; for appearance (color) after storage / decrease ratio in degree of whiteness / degree of whiteness after the test: 75% RH, airtight; for degree of whiteness after the test: after 2 weeks at 40° C.; for degree of whiteness at the onset: at onset/initiation of the storage test
From the text: In a β-glucan derivative according to the present invention, a non-reducing end needs not to be bound to all reducing ends. A non-reducing end may be bound to reducing ends to the extent that an active ingredient such as a medicament or the like having an amino group is stably present. The conversion rate of a reducing end of the β-glucan into a non-reducing end is preferably 0.1 mol % or more. Whether an active ingredient is present in a stable state can be readily checked by an observation based on degree of coloration in a storage stability test in a condition that is performed by mixing an active ingredient and a β-glucan derivative in equivalent amounts and stored the mixture at 40° C. under 75%. Since it has a reducing end, β-glucan is known to initiate the Maillard reaction with an active ingredient having a terminal amino group to form an amino-carbonyl bond and produce color. However, a β-glucan derivative according to the present invention has an advantageous effect in that since the reducing end is inactivated by a non-reducing sugar, no coloring reaction takes place. The effect of the present invention is particularly effective for an active ingredient having a primary amine.
Whether fructose was bound was confirmed based on an increase of a peak in a mass spectrum and a storage stability test of an equivalent mixture of the obtained transglucosylated product and L-arginine contained at 40° C. and 75% RH, airtight for 2 weeks. A decrease ratio in degree of whiteness was 2% (it was 99% at the onset and 97% after the test).

[2] = hardness of molded cylindrical product (Schleuniger hardness tester type 6D)
Protocol: (§1) The hardness of the molded cylindrical product thus obtained was measured by a Schleuniger hardness tester type 6D (Trademark, manufactured by FREUND Corporation). More specifically, a load pressure was applied to the molded cylindrical product or a tablet in the direction of the diameter to break it. The weight at the moment was measured. The hardness was represented by an average value of 10 samples. Furthermore, the disintegration time of the molded cylindrical product was determined in accordance with a general test method, a disintegration test method for tablets specified in the Japanese Pharmacopeia, 14th revision, by use of a disintegration tester (Toyama Sangyo Co., Ltd., Trade name: NT-40HS type with a disk), at 37° C. in pure water. The disintegration time was represented by an average of 6 tablets

[3] = disintegration time of molded cylindrical product (Japanese Pharmacopeia disintegration test); details: 37° C., pure water
Protocol: as §1

Row | Substance | appearance (color) after storage [1] | decrease ratio in degree of whiteness [1] [%] | degree of whiteness after the test [1] [%] | degree of whiteness at the onset [1] [%] | hardness of the molded cylindrical product ([2]; compression pressure 35 kN) [N] | disintegration time of the molded cylindrical product ([3]; compression pressure 35 kN) [s] | hardness of the molded cylindrical product ([2]; compressed at 25 kN, φ8 mm, average of 10 samples) [N] | disintegration time of the molded cylindrical product ([3]; compressed at 25 kN, with disk, average of 6) [s]
1 | transglucosylated cellobiose [Comparative Example 2] | White color in appearance was maintained | 3 | 96 | 99 | 80 | 300 |  | 
2 | transglucosylated cellotriose [Example 1] | White color in appearance was maintained | 2 | 97 | 99 |  |  | 70 | 58
